# Source: patent US11337423B1, “Candida auris disinfectant” (priority 2021, dated 2022)
# What was measured:
# Test in all cases: zone of inhibition in vitro test
# Assay type in all cases: cell-based
# [1] = tested on: Salmonella enterica ATCC 14028
# [2] = tested on: Propionibacterium acnes ATCC 6919
# [3] = tested on: Clostridium perfrinqens ATCC 13124
# [4] = tested on: Lactobacillus casei ATCC 393
# [5] = tested on: Candida albicans ATCC 10231
# [6] = tested on: Escherichia coli ATCC 8739
# [7] = tested on: Escerichia coli ATCC 43895
# [8] = tested on: Staphylococcus aureus ATCC 6538
# [9] = tested on: Methicillin Resistant Staphylococcus aureus ATCC 33591
# [10] = tested on: Staphyloccus epidermidis ATCC 12228
# [11] = tested on: Pseudomonas aeruqinosa ATCC 9-27
# [12] = tested on: Klebsiella pneumoniae ATCC 4352
# [13] = tested on: MRSE ATCC 51625
# [14] = tested on: Candida auris CDC B11903
# [15] = tested on: Escherichia coli 0157:H7
# [16] = Candida auris CDC 811903, Table 2
smiles,measurement,setting,value
"CCOC(=O)c1ccc(O)c(O)c1 [Ethyl ester of protocatechuic acid, 3,4-Dihydroxybenzoic acid ethyl ester]",Average (mm),[1],28 mm
same,RESULTS (mm) Plate 1,[1],28 mm
same,RESULTS (mm) Plate 2,[1],28 mm
same,Average (mm),[2],20 mm
same,RESULTS (mm) Plate 1,[2],22 mm
same,RESULTS (mm) Plate 2,[2],18 mm
same,Average (mm),[3],52 mm
same,RESULTS (mm) Plate 1,[3],50 mm
same,RESULTS (mm) Plate 2,[3],54 mm
same,Average (mm),[4],23 mm
same,RESULTS (mm) Plate 1,[4],24 mm
same,RESULTS (mm) Plate 2,[4],22 mm
same,Average (mm),[5],29.5 mm
same,RESULTS (mm) Plate 1,[5],31 mm
same,RESULTS (mm) Plate 2,[5],28 mm
same,Average (mm),[6],23 mm
same,RESULTS (mm) Plate 1,[6],22 mm
same,RESULTS (mm) Plate 2,[6],24 mm
same,Average (mm),[7],27 mm
same,RESULTS (mm) Plate 1,[7],25 mm
same,RESULTS (mm) Plate 2,[7],28 mm
same,Average (mm),[8],27 mm
same,RESULTS (mm) Plate 1,[8],26 mm
same,RESULTS (mm) Plate 2,[8],28 mm
same,Average (mm),[9],26.5 mm
same,RESULTS (mm) Plate 1,[9],28 mm
same,RESULTS (mm) Plate 2,[9],25 mm
same,Average (mm),[10],35 mm
same,RESULTS (mm) Plate 1,[10],35 mm
same,RESULTS (mm) Plate 2,[10],35 mm
same,Average (mm),[11],11 mm
same,RESULTS (mm) Plate 1,[11],11 mm
same,RESULTS (mm) Plate 2,[11],11 mm
same,Average (mm),[12],27 mm
same,RESULTS (mm) Plate 1,[12],28 mm
same,RESULTS (mm) Plate 2,[12],26 mm
same,Average (mm),[13],23 mm
same,RESULTS (mm) Plate 1,[13],23 mm
same,RESULTS (mm) Plate 2,[13],22 mm
same,Average (mm),[14]; [16],29.5 mm
same,RESULTS (mm) Plate 2,[14]; [16],28 mm
same,RESULTS (mm) Plate I,[14]; [16],31 mm
same,topical disinfection for Candida auris,[14]; conclusion in words from the in vitro test results,excellent agent for topical disinfection
same,Average (mm),[15],27 mm
same,RESULTS (mm) Plate 1,[15],26 mm
same,RESULTS (mm) Plate 2,[15],28 mm
"O=C(O)c1ccc(O)c(O)c1 [Protocatechuic acid, reference compound]",Average (mm),[1],14 mm
same,RESULTS (mm) Plate 1,[1],15 mm
same,RESULTS (mm) Plate 2,[1],13 mm
same,Average (mm),[2],21 mm
same,RESULTS (mm) Plate 1,[2],23 mm
same,RESULTS (mm) Plate 2,[2],19 mm
same,Average (mm),[3],52 mm
same,RESULTS (mm) Plate 1,[3],54 mm
same,RESULTS (mm) Plate 2,[3],50 mm
same,Average (mm),[4],21 mm
same,RESULTS (mm) Plate 1,[4],18 mm
same,RESULTS (mm) Plate 2,[4],24 mm
same,Average (mm),[5],18 mm
same,RESULTS (mm) Plate 1,[5],21 mm
same,RESULTS (mm) Plate 2,[5],15 mm
same,Average (mm),[6],14 mm
same,RESULTS (mm) Plate 1,[6],14 mm
same,RESULTS (mm) Plate 2,[6],14 mm
same,Average (mm),[7],13 mm
same,RESULTS (mm) Plate 1,[7],14 mm
same,RESULTS (mm) Plate 2,[7],12 mm
same,Average (mm),[8],18 mm
same,RESULTS (mm) Plate 1,[8],18 mm
same,RESULTS (mm) Plate 2,[8],18 mm
same,Average (mm),[9],21 mm
same,RESULTS (mm) Plate 1,[9],21 mm
same,RESULTS (mm) Plate 2,[9],21 mm
same,Average (mm),[10],27 mm
same,RESULTS (mm) Plate 1,[10],26 mm
same,RESULTS (mm) Plate 2,[10],28 mm
same,Average (mm),[11],13 mm
same,RESULTS (mm) Plate 1,[11],13 mm
same,RESULTS (mm) Plate 2,[11],13 mm
same,Average (mm),[12],14.5 mm
same,RESULTS (mm) Plate 1,[12],16 mm
same,RESULTS (mm) Plate 2,[12],13 mm
same,Average (mm),[13],18 mm
same,RESULTS (mm) Plate 1,[13],15 mm
same,RESULTS (mm) Plate 2,[13],20 mm
same,resistance of Candida auris to the chemical,[14]; conclusion in words,very resistant
same,Average (mm),[15],15.5 mm
same,RESULTS (mm) Plate 1,[15],17 mm
same,RESULTS (mm) Plate 2,[15],14 mm
